This note sets out measurements from patent publication US9051342B2 (priority 2004, dated 2015).

Each structure is given as a SMILES string.

Take `O=C(O)c1cccc(-c2ncn(-c3ccc(C(F)(F)F)cc3)n2)c1` [Compound 18, 3-[1-(4-Trifluoromethyl-phenyl)-1H-[1,2,4]triazol-3-yl]-benzoic acid]: the melting point (usually the temperature of the solid-liquid transition) lay in the range of 141 to 143 °C.
The same measure for `Cc1nc(-c2cccc(C(=O)O)c2)nn1-c1ccc(Br)cc1` [Compound 33, 3-[1-(4-Bromo-phenyl)-5-methyl-1H-[1,2,4]triazol-3-yl]-benzoic acid]: 295 to 298 °C; for `O=C(O)c1cccc(-n2cc(-c3ccc([N+](=O)[O-])cc3)cn2)c1` [Compound 101, 3-[4-(4-Nitro-phenyl)-pyrazol-1-yl]-benzoic acid]: 274 to 276 °C; for `O=C(O)c1ccc(-n2cc(-c3ccc(Br)cc3F)nn2)cc1` [Compound 267, 4-[4-(4-Bromo-2-fluoro-phenyl)-[1,2,3]triazol-1-yl]-benzoic acid]: 327 to 328 °C.
The molecule `O=C(O)c1cccc(-c2ncn(-c3cc(C(F)(F)F)cc(C(F)(F)F)c3)n2)c1` [Compound 20, 3-[1-(3,5-Bis-trifluoromethyl-phenyl)-1H-[1,2,4]triazol-3-yl]-benzoic acid] had a melting point of 271 to 273 °C.
In turn, `O=C(O)c1cccc(-c2ccn(-c3ccc(Cl)cc3)c2)c1` [Compound 155, 3-[1-(4-Chloro-phenyl)-1H-pyrrol-3-yl]-benzoic acid] had a melting point of 211 to 213 °C.
The same measure for `O=C(O)c1ccc(-c2ccn(-c3cc(F)cc(F)c3)c2)cc1` [Compound 153, 4-[1-(3,5-Difluoro-phenyl)-1H-pyrrol-3-yl]-benzoic acid]: 243 to 245 °C.
The same measure for `Cc1ccc(-c2cnn(-c3ccc(C(=O)O)cc3)c2)cc1` [Compound 51, 4-(4-p-Tolyl-pyrazol-1-yl)-benzoic acid]: 298 to 299 °C; for `COc1cccc(-c2ccn(-c3cccc(C(=O)O)c3)n2)c1` [Compound 220, 3-[3-(3-Methoxy-phenyl)-pyrazol-1-yl]-benzoic acid]: 179 to 180 °C; for `O=C(O)c1cccc(-n2cnc(-c3ccccc3)c2)c1` [Compound 262, 3-(4-Phenyl-imidazol-1-yl)-benzoic acid]: 277 to 279 °C.
The same measure for `COc1cccc(-n2cc(-c3ccc(C(=O)O)cc3)cn2)c1` [Compound 171, 4-[1-(3-Methoxy-phenyl)-1H-pyrazol-4-yl]-benzoic acid]: 211 to 212 °C; for `CC(C)c1ccc(-c2nn(-c3cccc(C(=O)O)c3)c(=S)o2)cc1` [Compound 283, 3-[5-(4-Isopropyl-phenyl)-2-thioxo-[1,3,4]oxadiazol-3-yl]-benzoic acid]: 215 to 217 °C; for `O=C(O)c1ccc([N+](=O)[O-])c(-c2cnn(-c3ccc(Cl)cc3)c2)c1` [Compound 56, 3-[1-(4-Chloro-phenyl)-1H-pyrazol-4-yl]-4-nitro-benzoic acid]: 270 to 271 °C.
Turning to `O=C(O)c1cccc(-n2cc(-c3ccc4ccccc4n3)cn2)c1` [Compound 123, 3-(4-Quinolin-2-yl-pyrazol-1-yl)-benzoic add], the melting point was in the range of 250 to 252 °C.
On to `O=C(O)c1ccc(-c2ccn(-c3ccccc3Cl)c2)cc1` [Compound 197, 4-[1-(2-Chloro-phenyl)-1H-pyrrol-3-yl]-benzoic acid], for which the melting point was 200 to 202 °C.
In the case of `O=C(O)c1cccc(-c2ccn(-c3cccc(C(=O)O)c3)n2)c1` [Compound 69, 1,3-Bis(3-carboxyphenyl)-1H-pyrazole] it was greater than 300 °C; in that of `COc1ccc(-c2ccc(-n3cnc(-c4cccc(C(=O)O)c4)n3)cc2)cc1` [Compound 27, 3-[1-(4′-Methoxy-biphenyl-4-yl)-1H-[1,2,4]triazol-3-yl]-benzoic acid], 243 to 246 °C.
The same measure for `O=C(O)c1ccc(-c2ccn(-c3ccc(Cl)cc3)c2)cc1` [Compound 196, 4-[1-(4-Chloro-phenyl)-1H-pyrrol-3-yl]-benzoic acid]: greater than 350 °C; for `O=C(O)c1cccc(-n2cc(-c3cccc(O)c3)cn2)c1` [Compound 207, 3-[4-(3-Hydroxy-phenyl)-pyrazol-1-yl]-benzoic acid]: 272 to 274 °C; for `COc1ccc(-n2ccc(-c3cccc(C(=O)O)c3)n2)cc1` [Compound 76, 3-[1-(4-Methoxy-phenyl)-1H-pyrazol-3-yl]-benzoic acid]: 160 to 161 °C.
In the case of `O=C(O)c1ccc(-c2ccn(-c3cccc(Cl)c3)c2)cc1` [Compound 243, 4-[1-(3-Chloro-phenyl)-1H-pyrrol-3-yl]-benzoic acid] it was 199 to 201 °C; in that of `O=C(O)c1cccc(-c2ncn(-c3ccc(-c4ccc(F)cc4)cc3)n2)c1` [Compound 32, 3-[1-(4′-Fluoro-biphenyl-4-yl)-1H-[1,2,4]triazol-3-yl]-benzoic acid], 272 to 275 °C.
For the molecule `COc1ccc2c(c1)CCc1cn(-c3cccc(C(=O)O)c3)nc1-2` [Compound 142, 3-(7-Methoxy-4,5-dihydro-benzo[g]indazol-2-yl)-benzoic acid], the melting point lay in the range of 217 to 218 °C.
In the case of `O=C(O)c1cccc(-c2cnn(-c3ccc(Cl)cc3)c2)n1` [Compound 54, 6-[1-(4-Chloro-phenyl)-1H-pyrazol-4-yl]-pyridine-2-carboxylic acid] it was 194 to 196 °C; in that of `O=C(O)c1ccc(-n2cc(-c3cccc(OC(F)(F)F)c3)cn2)cc1` [Compound 208, 4-[4-(3-Trifluoromethoxy-phenyl)-pyrazol-1-yl]-benzoic acid], 225 to 227 °C; in that of `O=C(O)c1ccc(-c2cnn(-c3ccc(Cl)c(Cl)c3)c2)cc1` [Compound 233, 4-[1-(3,4-Dichloro-phenyl)-1H-pyrazol-4-yl]-benzoic acid], 286 to 289 °C.
The molecule `O=C(O)c1ccc(-n2cc(-c3ccc(Cl)cc3)cn2)cc1` [Compound 52, 4-[4-(4-Chloro-phenyl)-pyrazol-1-yl]-benzoic acid] showed a melting point of 300 to 302 °C.
In the case of `O=C(O)c1cccc(-n2ccc(-c3ccc(N4CCOCC4)cc3)n2)c1` [Compound 82, 3-[3-(4-Morpholin-4-yl-phenyl)-pyrazol-1-yl]-benzoic acid] it was 230 to 235 °C.
Take `O=C(O)c1cccc(-c2cnn(-c3ccc(F)cc3)c2)c1` [Compound 181, 3-[1-(4-Fluoro-phenyl)-1H-pyrazol-4-yl]-benzoic acid]: the melting point was in the range of 235 to 237 °C.
In the case of `O=C(O)c1cccc(-c2cnn(-c3ccc(Cl)cc3)c2)c1` [Compound 83, 3-[1-(4-Chloro-phenyl)-1H-pyrazol-4-yl]-benzoic acid] it was 205 to 206 °C.
In the case of `COc1ccc(-c2cn(-c3ccc(C(=O)O)cc3)nn2)cc1OC` [Compound 272, 4-[4-(3,4-Dimethoxy-phenyl)-[1,2,3]triazol-1-yl]-benzoic acid] it was 253 to 254 °C.
The same measure for `CC(C)c1ccc(-c2cn(-c3ccc(C(=O)O)cc3)nn2)cc1` [Compound 275, 4-[4-(4-Isopropyl-phenyl)-[1,2,3]triazol-1-yl]-benzoic acid]: 311 to 312 °C; for `O=C(O)c1cccc(-n2cc(-c3ccc(OC(F)F)cc3)cn2)c1` [Compound 107, 3-[4-(4-Difluoromethoxy-phenyl)-pyrazol-1-yl]-benzoic acid]: 118 to 120 °C; for `COc1cccc(-c2cnn(-c3cccc(C(=O)O)c3)c2)c1` [Compound 112, 3-[4-(3-Methoxy-phenyl)-pyrazol-1-yl]-benzoic acid]: 157 to 158 °C.
Consider `O=C(O)c1ccc(-n2cc(-c3cccc(O)c3)cn2)cc1` [Compound 206, 4-[4-(3-Hydroxy-phenyl)-pyrazol-1-yl]-benzoic acid], for which the melting point was in the range of 273 to 275 °C.
In the case of `O=C(O)c1cccc(-n2cc(-c3ccccc3)cn2)c1` [Compound 98, 3-(4-Phenyl-pyrazol-1-yl)-benzoic acid] it was 225 to 226 °C.
The same measure for `O=C(O)c1ccc(-c2cnn(-c3ccc(F)cc3)c2)cc1` [Compound 182, 4-[1-(4-Fluoro-phenyl)-1H-pyrazol-4-yl]-benzoic acid]: 266 to 268 °C; for `O=C(O)c1cccc(-c2ncn(-c3cccc(F)c3)n2)c1` [Compound 29, 3-[1-(3-Fluoro-phenyl)-1H-[1,2,4]triazol-3-yl]-benzoic acid]: 266 to 268 °C.
The same measure for `COc1cccc(-c2ccn(-c3ccc(C(=O)O)cc3)n2)c1` [Compound 221, 4-[3-(3-Methoxy-phenyl)-pyrazol-1-yl]-benzoic acid]: 200 to 202 °C; for `Nc1ccc(-c2cnn(-c3cccc(C(=O)O)c3)c2)cc1` [Compound 108, 3-[4-(4-Amino-phenyl)-pyrazol-1-yl]-benzoic acid]: 209 to 210 °C; for `O=C(O)c1ccc(-n2cc(-c3cccc(Br)c3)cn2)cc1` [Compound 89, 4-[4-(3-Bromo-phenyl)-pyrazol-1-yl]-benzoic acid]: 247 to 248 °C.
In the case of `O=C(O)c1cccc(-c2ccn(-c3ccc4c(c3)OCO4)n2)c1` [Compound 87, 3-(1-Benzo[1,3]dioxol-5-yl-1H-pyrazol-3-yl)-benzoic acid], the melting point lay in the range of 210 to 215 °C.
The molecule `COc1ccc(-c2cnn(-c3cccc(C(=O)O)c3)c2)cc1` [Compound 47, 3-[4-(4-Methoxy-phenyl)-pyrazol-1-yl]-benzoic acid] had a melting point of 238 to 239 °C.
In the case of `O=C(O)c1cccc(-n2cc(-c3ccncn3)cn2)c1` [Compound 117, 3-(4-Pyrimidin-4-yl-pyrazol-1-yl)-benzoic acid] it was 297 to 299 °C.
In turn, `O=C(O)c1cccc(-c2ncn(-c3ccccn3)n2)c1` [Compound 36, 3-(1-Pyridin-2-yl-1H-[1,2,4]triazol-3-yl)-benzoic acid] yielded a melting point of 241 to 244 °C.
In the case of `O=C(O)c1cccc(-c2ncn(-c3ccc([N+](=O)[O-])cc3)n2)c1` [Compound 23, 3-[1-(4-Nitro-phenyl)-1H-[1,2,4]triazol-3-yl]-benzoic acid] it was 284 to 286 °C.
